Laboratory results as given in ChEMBL document CHEMBL1154450, “Synthesis and biological evaluation of diversely substituted indolin-2-ones” (Eur J Med Chem, 2008).
Calls of active or inactive are those of the source. The calls are words filed in the database; no cut-off is given here.

Legend:
[1] = Inhibition of PKA
[2] = tested on: Candida albicans; assay: Antimicrobial activity against Candida albicans IP444 at 300 ug/disk after 24 hrs by paper disk diffusion test; assay type: functional; settings: for zone of inhibition at 300 µg/disc: read-out: IZ
[3] = tested on: Escherichia coli; assay: Antibacterial activity against Escherichia coli ATCC 11303 at 300 ug/disk after 24 hrs by paper disk diffusion test; assay type: functional; settings: for zone of inhibition at 300 µg/disc: ATCC 11303, 24 h, read-out: IZ
[4] = target: Insulin-like growth factor 1 receptor (Homo sapiens, UniProt P08069); assay: Inhibition of IGF1R
Insulin-like growth factor 1 receptor, sequence (P08069 31-736 limits assumed): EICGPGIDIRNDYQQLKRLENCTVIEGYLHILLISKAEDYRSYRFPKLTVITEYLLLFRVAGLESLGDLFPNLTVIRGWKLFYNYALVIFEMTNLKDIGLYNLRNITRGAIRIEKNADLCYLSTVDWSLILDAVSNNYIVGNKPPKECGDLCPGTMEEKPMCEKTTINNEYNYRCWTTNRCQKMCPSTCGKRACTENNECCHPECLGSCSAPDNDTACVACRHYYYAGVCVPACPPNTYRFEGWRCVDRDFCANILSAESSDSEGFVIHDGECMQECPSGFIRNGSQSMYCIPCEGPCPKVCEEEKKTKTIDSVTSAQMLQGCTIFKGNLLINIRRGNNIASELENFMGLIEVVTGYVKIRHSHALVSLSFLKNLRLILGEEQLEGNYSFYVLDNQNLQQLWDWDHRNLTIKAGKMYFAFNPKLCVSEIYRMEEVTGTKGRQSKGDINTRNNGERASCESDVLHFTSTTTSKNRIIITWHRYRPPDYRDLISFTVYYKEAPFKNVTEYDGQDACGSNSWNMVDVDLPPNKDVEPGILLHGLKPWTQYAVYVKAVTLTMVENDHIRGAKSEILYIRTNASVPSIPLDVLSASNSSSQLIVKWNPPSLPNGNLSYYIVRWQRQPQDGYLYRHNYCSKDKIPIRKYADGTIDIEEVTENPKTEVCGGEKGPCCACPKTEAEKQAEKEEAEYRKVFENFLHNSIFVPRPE
Insulin-like growth factor 1 receptor, sequence (P08069 741-1367 limits assumed): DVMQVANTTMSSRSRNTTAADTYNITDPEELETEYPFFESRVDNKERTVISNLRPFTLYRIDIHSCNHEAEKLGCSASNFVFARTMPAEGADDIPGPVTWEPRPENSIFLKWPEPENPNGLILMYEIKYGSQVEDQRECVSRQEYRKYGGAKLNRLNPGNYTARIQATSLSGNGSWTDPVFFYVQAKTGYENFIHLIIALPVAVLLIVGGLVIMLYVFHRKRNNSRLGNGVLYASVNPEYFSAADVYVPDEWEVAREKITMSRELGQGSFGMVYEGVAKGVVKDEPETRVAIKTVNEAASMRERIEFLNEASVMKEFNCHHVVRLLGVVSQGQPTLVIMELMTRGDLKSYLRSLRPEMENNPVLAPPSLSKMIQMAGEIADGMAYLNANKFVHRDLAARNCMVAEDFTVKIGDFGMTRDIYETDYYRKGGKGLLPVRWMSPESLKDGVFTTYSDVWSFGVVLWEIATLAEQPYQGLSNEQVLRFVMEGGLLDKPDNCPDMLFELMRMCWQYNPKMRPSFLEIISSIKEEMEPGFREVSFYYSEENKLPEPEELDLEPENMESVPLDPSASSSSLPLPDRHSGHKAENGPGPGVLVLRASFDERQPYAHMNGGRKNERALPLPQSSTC

[5] = target: Vascular endothelial growth factor receptor 2 (Homo sapiens, UniProt P35968); assay: Inhibition of KDR
[6] = tested on: Bacillus cereus; assay: Antibacterial activity against Bacillus cereus ATCC 14579 at 300 ug/disk after 24 hrs by paper disk diffusion test; assay type: functional; settings: ATCC 14579, 24 h, read-out: IZ
[7] = tested on: Streptomyces chartreusis; assay: Antibacterial activity against Streptomyces chartreusis NRRL 11407 at 300 ug/disk after 24 hrs by paper disk diffusion test; assay type: functional; settings: NRRL 11407, 24 h, read-out: IZ
[8] = target: Tyrosine-protein kinase ABL1 (Homo sapiens, UniProt P00519); assay: Inhibition of c-Abl
Tyrosine-protein kinase ABL1, sequence (P00519 whole entry): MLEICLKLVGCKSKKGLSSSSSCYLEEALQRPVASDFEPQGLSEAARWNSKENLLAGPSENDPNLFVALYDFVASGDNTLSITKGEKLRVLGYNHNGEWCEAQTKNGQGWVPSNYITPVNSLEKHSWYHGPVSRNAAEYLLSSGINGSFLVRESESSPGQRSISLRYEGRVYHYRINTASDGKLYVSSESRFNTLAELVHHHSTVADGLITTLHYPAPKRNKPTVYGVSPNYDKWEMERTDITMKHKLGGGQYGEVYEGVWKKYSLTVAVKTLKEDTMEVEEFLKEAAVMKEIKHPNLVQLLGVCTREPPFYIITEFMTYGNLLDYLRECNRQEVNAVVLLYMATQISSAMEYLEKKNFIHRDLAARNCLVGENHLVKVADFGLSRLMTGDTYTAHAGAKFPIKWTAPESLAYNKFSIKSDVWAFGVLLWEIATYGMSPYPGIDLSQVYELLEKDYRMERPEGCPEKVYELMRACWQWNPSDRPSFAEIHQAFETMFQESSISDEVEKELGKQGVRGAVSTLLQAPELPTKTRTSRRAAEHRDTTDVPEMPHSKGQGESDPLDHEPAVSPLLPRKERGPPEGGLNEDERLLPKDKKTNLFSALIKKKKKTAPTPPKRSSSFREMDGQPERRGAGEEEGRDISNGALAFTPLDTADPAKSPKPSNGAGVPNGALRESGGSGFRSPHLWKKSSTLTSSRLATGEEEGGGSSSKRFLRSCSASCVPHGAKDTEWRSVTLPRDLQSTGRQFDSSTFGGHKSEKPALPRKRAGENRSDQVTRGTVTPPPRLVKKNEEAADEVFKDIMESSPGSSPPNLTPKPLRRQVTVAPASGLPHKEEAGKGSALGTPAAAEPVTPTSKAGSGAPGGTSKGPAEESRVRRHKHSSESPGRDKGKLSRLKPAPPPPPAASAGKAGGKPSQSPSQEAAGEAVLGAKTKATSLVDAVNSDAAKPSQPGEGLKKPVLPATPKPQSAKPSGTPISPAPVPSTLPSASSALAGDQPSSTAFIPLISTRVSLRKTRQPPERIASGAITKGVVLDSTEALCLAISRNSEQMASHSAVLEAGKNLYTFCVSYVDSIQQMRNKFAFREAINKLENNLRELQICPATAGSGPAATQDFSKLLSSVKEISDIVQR

[9] = target: Hepatocyte growth factor receptor (Homo sapiens, UniProt P08581); assay: Inhibition of cMet
Hepatocyte growth factor receptor, sequence (P08581 whole entry): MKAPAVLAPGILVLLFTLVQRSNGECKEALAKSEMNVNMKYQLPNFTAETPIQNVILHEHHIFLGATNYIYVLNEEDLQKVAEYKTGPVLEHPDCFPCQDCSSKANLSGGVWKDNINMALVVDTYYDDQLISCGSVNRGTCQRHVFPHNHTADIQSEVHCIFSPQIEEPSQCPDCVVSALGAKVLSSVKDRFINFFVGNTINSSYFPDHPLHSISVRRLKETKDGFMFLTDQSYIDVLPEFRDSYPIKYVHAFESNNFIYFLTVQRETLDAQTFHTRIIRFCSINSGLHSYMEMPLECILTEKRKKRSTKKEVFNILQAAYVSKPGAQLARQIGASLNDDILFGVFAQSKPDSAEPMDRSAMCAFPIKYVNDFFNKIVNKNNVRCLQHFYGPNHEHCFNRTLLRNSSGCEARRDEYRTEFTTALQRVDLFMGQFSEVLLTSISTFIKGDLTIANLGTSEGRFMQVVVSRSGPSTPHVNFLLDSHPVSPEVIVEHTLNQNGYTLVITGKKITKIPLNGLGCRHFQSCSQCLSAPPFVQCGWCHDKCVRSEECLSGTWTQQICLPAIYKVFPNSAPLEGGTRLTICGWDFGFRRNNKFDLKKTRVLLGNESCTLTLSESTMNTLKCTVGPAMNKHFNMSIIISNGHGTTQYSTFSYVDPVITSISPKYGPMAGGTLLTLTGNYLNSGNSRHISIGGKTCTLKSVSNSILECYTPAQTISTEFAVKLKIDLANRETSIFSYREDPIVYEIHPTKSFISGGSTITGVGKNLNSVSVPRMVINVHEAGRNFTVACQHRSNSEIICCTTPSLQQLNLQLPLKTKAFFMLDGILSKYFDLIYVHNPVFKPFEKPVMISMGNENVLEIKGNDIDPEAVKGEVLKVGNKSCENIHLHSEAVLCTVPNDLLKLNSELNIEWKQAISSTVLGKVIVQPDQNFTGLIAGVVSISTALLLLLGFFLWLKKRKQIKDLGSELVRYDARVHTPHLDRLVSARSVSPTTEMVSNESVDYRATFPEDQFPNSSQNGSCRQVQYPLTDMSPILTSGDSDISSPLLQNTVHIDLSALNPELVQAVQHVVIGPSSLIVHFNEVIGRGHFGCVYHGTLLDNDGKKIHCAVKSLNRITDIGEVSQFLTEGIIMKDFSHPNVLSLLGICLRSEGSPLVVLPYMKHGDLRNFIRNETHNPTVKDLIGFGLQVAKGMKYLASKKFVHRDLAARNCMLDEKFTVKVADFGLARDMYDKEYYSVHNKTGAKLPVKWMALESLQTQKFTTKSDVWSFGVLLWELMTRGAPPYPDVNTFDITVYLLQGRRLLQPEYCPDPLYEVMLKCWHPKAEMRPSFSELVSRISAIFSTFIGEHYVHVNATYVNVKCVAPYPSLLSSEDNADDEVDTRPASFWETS

[10] = target: Proto-oncogene tyrosine-protein kinase receptor Ret (Homo sapiens, UniProt P07949); assay: Inhibition of Ret
[11] = target: Proto-oncogene tyrosine-protein kinase Src (Homo sapiens, UniProt P12931); assay: Inhibition of Src
Proto-oncogene tyrosine-protein kinase Src, sequence (P12931 2-536 limits assumed): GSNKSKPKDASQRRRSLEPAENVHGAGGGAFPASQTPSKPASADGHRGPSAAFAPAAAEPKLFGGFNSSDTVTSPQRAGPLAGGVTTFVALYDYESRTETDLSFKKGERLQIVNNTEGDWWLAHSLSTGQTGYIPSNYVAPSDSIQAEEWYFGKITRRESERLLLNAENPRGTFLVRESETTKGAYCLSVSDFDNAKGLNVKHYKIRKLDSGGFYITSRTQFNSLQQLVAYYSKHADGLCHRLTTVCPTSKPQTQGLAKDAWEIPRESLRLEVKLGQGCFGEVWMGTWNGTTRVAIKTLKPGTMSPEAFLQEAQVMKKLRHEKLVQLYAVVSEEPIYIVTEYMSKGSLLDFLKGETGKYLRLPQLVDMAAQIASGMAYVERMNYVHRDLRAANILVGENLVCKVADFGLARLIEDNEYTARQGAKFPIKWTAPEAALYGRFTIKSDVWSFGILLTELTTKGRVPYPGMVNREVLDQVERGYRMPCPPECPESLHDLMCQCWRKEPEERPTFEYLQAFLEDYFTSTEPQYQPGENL

[12] = target: Cyclin-dependent kinase 2 (Homo sapiens, UniProt P24941); assay: Inhibition of CDK2/Cyclin A

| SMILES | IC50 [1] [µM] | IC50 [4] [µM] | IC50 [5] [µM] | IC50 [8] [µM] | IC50 [9] [µM] | IC50 [10] [µM] | IC50 [11] [µM] | IC50 [12] [µM] | zone of inhibition at 300 µg/disc [2] [mm] | Activity [3] | zone of inhibition at 300 µg/disc [6] [mm] | zone of inhibition at 300 µg/disc [7] [mm] | zone of inhibition at 300 µg/disc [3] [mm] | Activity [2] |
| --- | --- | --- | --- | --- | --- | --- | --- | --- | --- | --- | --- | --- | --- | --- |
| N[C@@H](CCCCN/C=C1\C(=O)Nc2ccc(Br)cc21)C(=O)O | > 10 | > 10 | > 10 | > 10 | > 10 | > 10 | > 10 |  | 6 | inactive | 6 | 7 |  |  |
| CC1(C)S[C@@H]2[C@H](NC(=O)[C@H](N)c3ccccc3)C(=O)N2[C@H]1C(=O)O [AMPICILLIN] |  |  |  |  |  |  |  |  |  |  | 13 | 25 | 31 |  |
| N[C@@H](CCCN/C=C1\C(=O)Nc2ccc(Br)cc21)C(=O)O | > 10 | > 10 | > 10 | > 10 | > 10 | > 10 | > 10 | 6.6 |  | inactive | 7 | 8 |  | inactive |
| C[C@@H]1[C@H](O)[C@@H](C)/C=C/C=C/C=C/C=C/C=C/C=C/C=C/[C@H](O[C@@H]2O[C@H](C)[C@@H](O)[C@H](N)[C@@H]2O)C[C@@H]2O[C@](O)(C[C@@H](O)C[C@@H](O)[C@H](O)CC[C@@H](O)C[C@@H](O)CC(=O)O[C@H]1C)C[C@H](O)[C@H]2C(=O)O [AMPHOTERICIN B] |  |  |  |  |  |  |  |  | 13 |  |  |  |  |  |

More lines, main results first:

| IC50 [1] [µM] | IC50 [4] [µM] | IC50 [5] [µM] | IC50 [8] [µM] | IC50 [9] [µM] | IC50 [10] [µM] | IC50 [11] [µM] | IC50 [12] [µM] | SMILES | zone of inhibition at 300 µg/disc [2] [mm] | Activity [3] | zone of inhibition at 300 µg/disc [6] [mm] | zone of inhibition at 300 µg/disc [7] [mm] | zone of inhibition at 300 µg/disc [3] [mm] | Activity [2] |
| --- | --- | --- | --- | --- | --- | --- | --- | --- | --- | --- | --- | --- | --- | --- |
| > 10 | > 10 | > 10 | > 10 | > 10 | > 10 | > 10 |  | N[C@@H](CCCN/C=C1\C(=O)Nc2ccccc21)C(=O)O | 6 |  | 7 | 10 | 6 |  |
| > 10 | > 10 | > 10 | > 10 | > 10 | > 10 | > 10 |  | N[C@@H](CCCCN/C=C1\C(=O)Nc2ccccc21)C(=O)O | 6 | inactive | 6 | 6 |  |  |
